Values after ≈ are worked out from the molar mass of the structure shown. Read-outs that look alike come from different tables or passages of the source.
Legend:
fungal (fACC2) ACC2 = fungal (fACC2) ACC2 (UniProt Q00955); conditions: read-out: fACC2 IC50; fungal ACC2, ADP-Glo
Experimental: An exemplary procedure for the in vitro ACC inhibition assay, which can be used to determine the inhibitory action of compounds of the invention toward either human (hACC2) or fungal (fACC2) ACC2, follows. The ADP-Glo™ Kinase Assay kit from Promega was used. The ADP-Glo™ Kinase Assay is a luminescent ADP detection assay to measure enzymatic activity by quantifying the amount of ADP produced during an enzyme reaction. The assay is performed in two steps; first, after the enzyme reaction, an equal volume of ADP-Glo™ Reagent is added to terminate the reaction and deplete the remaining ATP. Second, the Kinase Detection Reagent is added to simultaneously convert ADP to ATP and allow the newly synthesized ATP to be measured using a luciferase/luciferin reaction. Luminescence can be correlated to ADP concentrations by using an ATP-to-ADP conversion curve. The detailed procedure is as follows. 50 μL of the compound being tested (600 μM in DMSO) was added to a 384-well dilution plate. The compound was diluted 1:3 in succession in DMSO for each row for 11 wells. 0.5 μL ACC2 working solution was added to 384-well white Optiplate assay plate. 0.5 μL diluted compound solution in each column from step 2 was added to assay plate, each row containing 2 replicates. […] The plates were incubated at room temperature for 15 minutes. 5 μL substrate working solution was added to each well to initiate reaction. Final ACC2 reaction concentrations consist of: 5 nM ACC2, 20 μM ATP, 20 μM acetyl-CoA, 12 mM NaHCO3, 0.01% Brij35, 2 mM DTT, 5% DMSO, test compound concentrations: 30 μM, 10 μM, 3.33 μM, 1.11 μM, 0.37 μM, 0.123 μM, 0.0411 μM, 0.0137 μM, 0.00457 μM, 0.00152 μM, and 0.00051 μM. Plates were incubated at room temperature for 60 minutes. 10 μL ADP glo reagent was added. Plates were incubated at room temperature for 40 minutes. 20 μL kinase detection reagent was added. Plates were incubated at room temperature for 40 minutes, and then read on a Perkin Elmer EnVision 2104 plate reader for luminescence as Relative Light Units (RLU).
Data for each concentration, as well as the positive and negative controls were averaged, and the standard deviation calculated. Percent inhibition was calculated by the formula: 100×(average negative control−compound)/(average negative control−average positive control). The IC50 for each compound was calculated by fitting the data with a non-linear regression equation: Y=Bottom+(Top-Bottom)/(1+10^((Log IC50−X)*Hill Slope)), where X is the log of compound concentration and Y is percent inhibition.
Compounds having an activity designated as “AA” provided an IC50 0.0006-0.003 μM; provided an “A” provided an IC50 0.003-0.01 μM; compounds having an activity designated as “B” provided an IC50 0.01-0.04 μM; and compounds having an activity designated as “C” provided an IC50>0.04 μM IC50. “NA” stands for “not assayed.”

human (hACC2) ACC2 = human (hACC2) ACC2 (Homo sapiens, UniProt O00763); experiment: In vitro Acetyl-CoA Carboxylase (ACC) inhibition assay (ADP-Glo), hACC2; assay type: biochemical
Experimental: The detailed procedure is as follows. […] 10 μL ADP glo reagent was added. […] 20 μL kinase detection reagent was added.
“NA” stands for “not assayed.”

[1] = tested on: C. parapsilosis ATCC 22019; experiment: Anti-Fungal (Candida) Activity Assay, broth microtiter MIC; assay type: cell-based; conditions: Lodderomyces parapsilosis, read-out: MIC C. parapsilosis ATCC 22019
Summary of the method: (§1)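 MIC by visual comparison of challenged wells with growth control, scored at 48 h. Setup: CLSI M27-A3 broth microtiter plates, RPMI 1640+MOPS medium, direct colony suspension from overnight Sabouraud agar cultures (35 °C, 24 h).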

C. albicans ATCC 90028 = experiment: as above; assay type: cell-based; conditions: read-out: MIC C. albicans ATCC 90028
Summary of the method: as §1

C. krusei ATCC 6258 = experiment: as above; assay type: cell-based; conditions: Pichia kudriavzevii, read-out: MIC C. krusei ATCC 6258
Summary of the method: as §1

Rhizoctonia solani (Rs) = experiment: Growth inhibition assay of fungal pathogens; assay type: cell-based; conditions: 48 h, read-out: Concentration at 90% Inhibition Rs
Summary of the method: (§2)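 Liquid-culture assay in which test compounds are applied at three final concentrations (50, 10, 2 ppm or 2, 0.4, 0.08 ppm). Inoculum levels follow 48 h growth curves for each fungus. Growth is monitored by OD600 and by eye, and the 48 h values give % inhibition against DMSO.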

[2] = tested on: Fusarium moniliforme (Fm); experiment: Growth inhibition assay of fungal pathogens; assay type: cell-based; conditions: for IC90: Fusarium verticillioides, 48 h, read-out: Concentration at 90% Inhibition Fm
Summary of the method: as §2

Diplodia maydis (Dm) = experiment: Growth inhibition assay of fungal pathogens; assay type: cell-based; conditions: Stenocarpella maydis, 48 h, read-out: Concentration at 90% Inhibition Dm
Summary of the method: as §2

[3] = tested on: Fusarium virguliforme (Fv); experiment: Growth inhibition assay of fungal pathogens; assay type: cell-based; conditions: 48 h
Summary of the method: (§3)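 Compounds in DMSO tested at final 50, 10, 2 ppm or 2, 0.4, 0.08 ppm. Spores in 17% V8 medium, or 1.5 mm mycelial plugs in ¼ PDB for R. solani, incubated with compound. OD600 and visual ratings at 48 h versus 2% DMSO control gave percent growth inhibition.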

[4] = tested on: Phytophthora capsici (Pc); experiment: Growth inhibition assay of fungal pathogens; assay type: cell-based; conditions: for IC90: Phytophthora capsici, read-out: Concentration at 90% Inhibition Pc
Summary of the method: as §3

[5] = tested on: Collectotrichum graminicola (Cg); experiment: Growth inhibition assay of fungal pathogens; assay type: cell-based; conditions: 48 h, read-out: Concentration at 90% Inhibition Cg
Summary of the method: as §3

Botrtyis cinerea (Bc) = experiment: Growth inhibition assay of fungal pathogens; assay type: cell-based; conditions: 48 h, read-out: Concentration at 90% Inhibition Bc
Summary of the method: as §2

Septoria tritici (St) = experiment: Growth inhibition assay of fungal pathogens; assay type: cell-based; conditions: for IC90: Zymoseptoria tritici, read-out: Concentration at 90% Inhibition St
Summary of the method: as §3

[6] = ATCC22019, 3 replicates, MIC recorded at 48 h
[7] = ATCC90028, 3 replicates, MIC recorded at 48 h
[8] = ATCC6258, 3 replicates, MIC recorded at 48 h
[9] = Table 4a, 48 hours, read-out: Concentration at 90% Inhibition Fv
[10] = Table 4b, 48 hours, read-out: Concentration at 90% Inhibition Fv
[11] = read-out: Concentration at 90% Inhibition Fv, Table 4a, 48 hours
[12] = read-out: Concentration at 90% Inhibition Fv, Table 4b, 48 hours

Sequence of human (hACC2) ACC2 (O00763 whole entry): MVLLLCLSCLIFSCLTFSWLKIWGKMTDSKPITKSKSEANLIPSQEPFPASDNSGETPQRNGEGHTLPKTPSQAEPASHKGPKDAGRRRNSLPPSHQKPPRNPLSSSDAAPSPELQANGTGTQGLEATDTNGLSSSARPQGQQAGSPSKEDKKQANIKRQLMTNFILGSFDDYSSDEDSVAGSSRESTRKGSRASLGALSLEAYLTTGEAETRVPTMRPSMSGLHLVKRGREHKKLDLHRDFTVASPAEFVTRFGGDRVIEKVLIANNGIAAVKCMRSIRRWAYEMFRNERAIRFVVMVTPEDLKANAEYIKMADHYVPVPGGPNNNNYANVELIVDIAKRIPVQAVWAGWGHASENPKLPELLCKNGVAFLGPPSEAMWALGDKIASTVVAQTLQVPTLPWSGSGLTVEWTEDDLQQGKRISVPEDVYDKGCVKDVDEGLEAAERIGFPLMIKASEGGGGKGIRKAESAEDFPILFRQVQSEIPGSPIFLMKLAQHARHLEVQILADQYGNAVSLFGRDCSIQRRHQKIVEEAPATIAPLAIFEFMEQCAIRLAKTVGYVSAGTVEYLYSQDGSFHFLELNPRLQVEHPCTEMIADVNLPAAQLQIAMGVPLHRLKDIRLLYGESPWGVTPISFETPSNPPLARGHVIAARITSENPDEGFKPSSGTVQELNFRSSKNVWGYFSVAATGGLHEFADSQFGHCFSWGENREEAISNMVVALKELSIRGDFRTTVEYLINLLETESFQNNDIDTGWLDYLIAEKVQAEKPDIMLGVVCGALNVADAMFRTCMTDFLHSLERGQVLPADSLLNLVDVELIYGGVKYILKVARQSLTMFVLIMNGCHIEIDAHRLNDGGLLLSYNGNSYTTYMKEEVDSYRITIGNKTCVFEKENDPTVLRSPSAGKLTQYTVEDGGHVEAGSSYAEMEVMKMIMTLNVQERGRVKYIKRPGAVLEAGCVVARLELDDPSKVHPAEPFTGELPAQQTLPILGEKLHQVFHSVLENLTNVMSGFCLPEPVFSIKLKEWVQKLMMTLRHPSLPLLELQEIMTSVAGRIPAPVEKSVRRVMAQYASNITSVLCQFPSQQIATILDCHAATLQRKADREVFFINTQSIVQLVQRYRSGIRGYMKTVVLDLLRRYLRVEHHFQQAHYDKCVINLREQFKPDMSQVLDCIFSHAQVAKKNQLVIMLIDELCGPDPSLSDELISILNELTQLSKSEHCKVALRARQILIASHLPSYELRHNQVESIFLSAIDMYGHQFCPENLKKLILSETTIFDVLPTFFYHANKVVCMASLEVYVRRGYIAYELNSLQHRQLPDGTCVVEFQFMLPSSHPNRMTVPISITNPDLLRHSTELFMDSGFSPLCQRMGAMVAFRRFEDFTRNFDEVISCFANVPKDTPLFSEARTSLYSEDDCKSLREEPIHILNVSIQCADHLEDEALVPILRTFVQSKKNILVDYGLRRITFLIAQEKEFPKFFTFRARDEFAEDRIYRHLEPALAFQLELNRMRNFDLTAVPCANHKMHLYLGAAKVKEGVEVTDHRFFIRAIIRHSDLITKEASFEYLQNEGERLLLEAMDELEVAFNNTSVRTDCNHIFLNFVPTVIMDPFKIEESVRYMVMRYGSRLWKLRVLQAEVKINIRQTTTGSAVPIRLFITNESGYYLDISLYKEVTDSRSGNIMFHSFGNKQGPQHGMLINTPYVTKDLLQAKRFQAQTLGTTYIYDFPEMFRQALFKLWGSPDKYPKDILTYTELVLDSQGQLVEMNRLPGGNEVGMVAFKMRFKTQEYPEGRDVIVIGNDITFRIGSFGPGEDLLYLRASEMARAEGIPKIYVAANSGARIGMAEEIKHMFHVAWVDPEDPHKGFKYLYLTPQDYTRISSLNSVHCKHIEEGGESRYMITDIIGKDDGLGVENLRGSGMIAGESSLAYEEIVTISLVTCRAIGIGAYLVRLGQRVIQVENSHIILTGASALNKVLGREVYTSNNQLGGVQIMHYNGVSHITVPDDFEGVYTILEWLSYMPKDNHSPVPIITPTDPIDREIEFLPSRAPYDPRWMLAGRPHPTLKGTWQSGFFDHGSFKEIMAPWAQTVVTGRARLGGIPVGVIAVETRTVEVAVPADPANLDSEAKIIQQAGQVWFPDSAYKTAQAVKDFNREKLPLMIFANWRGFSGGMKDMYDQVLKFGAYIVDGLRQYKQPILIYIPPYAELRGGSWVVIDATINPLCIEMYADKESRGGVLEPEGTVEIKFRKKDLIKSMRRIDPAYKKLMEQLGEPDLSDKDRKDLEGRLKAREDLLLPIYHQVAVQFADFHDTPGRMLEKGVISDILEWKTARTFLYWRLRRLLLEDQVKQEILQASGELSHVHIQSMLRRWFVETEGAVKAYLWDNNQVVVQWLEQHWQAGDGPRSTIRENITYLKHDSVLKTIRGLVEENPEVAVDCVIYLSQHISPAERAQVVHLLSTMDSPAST
Sequence of fungal (fACC2) ACC2 (Q00955 whole entry): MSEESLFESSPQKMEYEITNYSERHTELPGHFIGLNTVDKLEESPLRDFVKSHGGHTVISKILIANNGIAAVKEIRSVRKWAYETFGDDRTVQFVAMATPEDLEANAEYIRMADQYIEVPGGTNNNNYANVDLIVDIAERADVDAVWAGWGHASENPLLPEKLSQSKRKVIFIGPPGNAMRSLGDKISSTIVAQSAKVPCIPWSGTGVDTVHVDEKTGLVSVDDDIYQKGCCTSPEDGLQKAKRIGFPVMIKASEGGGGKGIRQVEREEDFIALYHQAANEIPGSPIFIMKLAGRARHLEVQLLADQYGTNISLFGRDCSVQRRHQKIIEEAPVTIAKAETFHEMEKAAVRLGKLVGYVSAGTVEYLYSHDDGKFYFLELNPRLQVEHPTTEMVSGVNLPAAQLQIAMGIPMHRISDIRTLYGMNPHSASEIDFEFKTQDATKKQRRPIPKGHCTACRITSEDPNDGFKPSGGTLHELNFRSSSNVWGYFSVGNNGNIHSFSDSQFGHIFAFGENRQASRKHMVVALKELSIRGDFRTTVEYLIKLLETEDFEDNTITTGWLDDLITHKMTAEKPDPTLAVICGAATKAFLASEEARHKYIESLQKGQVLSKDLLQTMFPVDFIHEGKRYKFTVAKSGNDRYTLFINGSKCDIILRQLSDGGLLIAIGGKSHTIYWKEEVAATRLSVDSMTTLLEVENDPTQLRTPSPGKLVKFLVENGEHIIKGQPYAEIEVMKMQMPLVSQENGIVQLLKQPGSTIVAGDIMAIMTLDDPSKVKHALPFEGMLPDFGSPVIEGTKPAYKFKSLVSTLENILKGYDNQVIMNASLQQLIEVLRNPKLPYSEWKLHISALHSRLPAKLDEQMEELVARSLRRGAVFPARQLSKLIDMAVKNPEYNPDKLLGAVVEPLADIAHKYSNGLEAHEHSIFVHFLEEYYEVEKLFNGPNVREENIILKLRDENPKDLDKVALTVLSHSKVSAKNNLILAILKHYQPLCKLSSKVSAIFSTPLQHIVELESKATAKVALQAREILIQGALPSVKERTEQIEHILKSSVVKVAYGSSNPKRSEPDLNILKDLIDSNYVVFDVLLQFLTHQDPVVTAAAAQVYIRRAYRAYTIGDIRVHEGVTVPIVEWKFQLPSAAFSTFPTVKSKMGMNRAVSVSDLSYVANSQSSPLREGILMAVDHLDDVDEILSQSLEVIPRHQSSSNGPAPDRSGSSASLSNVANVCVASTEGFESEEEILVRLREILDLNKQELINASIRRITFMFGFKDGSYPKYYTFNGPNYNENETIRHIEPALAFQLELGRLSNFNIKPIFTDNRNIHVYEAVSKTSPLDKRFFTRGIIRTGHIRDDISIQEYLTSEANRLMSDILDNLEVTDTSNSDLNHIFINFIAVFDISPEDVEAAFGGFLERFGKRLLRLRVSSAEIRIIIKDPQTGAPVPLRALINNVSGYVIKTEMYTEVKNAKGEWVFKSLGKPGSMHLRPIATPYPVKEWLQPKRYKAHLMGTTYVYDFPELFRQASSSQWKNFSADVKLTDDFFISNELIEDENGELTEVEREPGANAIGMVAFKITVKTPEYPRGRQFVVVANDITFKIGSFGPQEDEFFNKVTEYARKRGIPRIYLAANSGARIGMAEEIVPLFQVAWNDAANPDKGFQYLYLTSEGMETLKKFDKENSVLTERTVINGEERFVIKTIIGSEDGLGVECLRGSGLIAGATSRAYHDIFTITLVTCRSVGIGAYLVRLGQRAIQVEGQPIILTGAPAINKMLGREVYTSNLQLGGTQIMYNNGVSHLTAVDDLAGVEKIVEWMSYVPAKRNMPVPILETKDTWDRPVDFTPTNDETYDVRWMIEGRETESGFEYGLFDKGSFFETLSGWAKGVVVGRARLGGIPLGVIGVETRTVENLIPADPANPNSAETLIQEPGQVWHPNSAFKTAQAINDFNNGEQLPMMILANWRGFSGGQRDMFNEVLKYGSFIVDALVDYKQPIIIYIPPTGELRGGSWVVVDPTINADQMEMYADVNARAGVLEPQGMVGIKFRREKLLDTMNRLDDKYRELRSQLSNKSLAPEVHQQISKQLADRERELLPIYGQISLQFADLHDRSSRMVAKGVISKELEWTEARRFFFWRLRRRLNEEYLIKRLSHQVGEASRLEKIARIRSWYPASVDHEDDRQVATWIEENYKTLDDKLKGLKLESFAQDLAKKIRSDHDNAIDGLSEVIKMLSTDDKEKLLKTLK

Row | Structure (SMILES) | IC50 (fungal (fACC2) ACC2) [nM] | IC50 (human (hACC2) ACC2) [nM] | MIC [1, 6] [mg/L] | MIC (C. albicans ATCC 90028; [7]) [mg/L] | MIC (C. krusei ATCC 6258; [8]) [mg/L] | IC90 (Rhizoctonia solani (Rs); Table 4a) [mg/L] | IC90 (Rhizoctonia solani (Rs); Table 4b) [mg/L] | IC90 ([2]; Table 4a, 48 hours) [mg/L] | IC90 ([2]; Table 4b, 48 hours) [mg/L] | IC90 (Diplodia maydis (Dm); Table 4a) [mg/L] | IC90 (Diplodia maydis (Dm); Table 4b) [mg/L] | IC90 [3, 9] [mg/L] | IC90 [3, 10] [mg/L] | IC90 ([4]; Table 4a, 48 hours) [mg/L] | Concentration at 90% Inhibition Pc ([4]; Table 4b, 48 hours) | IC90 ([5]; Table 4a) [mg/L] | IC90 ([5]; Table 4b) [mg/L] | IC90 (Botrtyis cinerea (Bc); Table 4a) [mg/L] | IC90 (Botrtyis cinerea (Bc); Table 4b) [mg/L] | Concentration at 90% Inhibition St (Septoria tritici (St); Table 4b, 48 hours) | other results
1 | COc1ccc(F)cc1[C@H](Cn1c(=O)n(C(C)(C)C(=O)N2CCCC2)c(=O)c2c(C)c(-n3cccn3)sc21)OCCO [Compound I-36, (R)-1-(2-(5-fluoro-2-methoxyphenyl)-2-(2-hydroxy-ethoxy)ethyl)-5-methyl-3-(2-methyl-1-oxo-1-(pyrrolidin-1-yl)propan-2-yl)-6-(1H-pyrazol-1-yl)thieno[2,3-d]pyrimidine-2,4(1H,3H)-dione] | 0.6 to 3 | 3 to 10 | 2.1 to 4 (≈ 3.5 to 6.67 µM) | 2.1 to 4 (≈ 3.5 to 6.67 µM) | 1.1 to 2 (≈ 1.83 to 3.34 µM) | > 50 | 10 (≈ 16.7 µM) | 2 (≈ 3.34 µM) | 2 (≈ 3.34 µM) | > 50 | > 50 | 2 (≈ 3.34 µM) | 2 (≈ 3.34 µM) | > 50 | D (“D” provided a compound concentration of >50 ppm at 90% inhibition of fungal pathogens) | > 50 | 10 (≈ 16.7 µM) | > 50 | 10 (≈ 16.7 µM) | D (“D” provided a compound concentration of >50 ppm at 90% inhibition of fungal pathogens) | IC90 (Septoria tritici (St); Table 4a, 48 hours): > 50 mg/L
2 | COc1ccc(F)cc1[C@H](Cn1c(=O)n(C(C)(C)C(=O)N2CCCC2)c(=O)c2c(C)c(-n3cccn3)sc21)OC[C@@H](C)O [Compound I-37, 1-((R)-2-(5-fluoro-2-methoxyphenyl)-2-((R)-2-hydroxy-propoxy)ethyl)-5-methyl-3-(2-methyl-1-oxo-1-(pyrrolidin-1-yl)propan-2-yl)-6-(1H-pyrazol-1-yl)thieno[2,3-d]pyrimidine-2,4(1H,3H)-dione] | 0.6 to 3 | 3 to 10 | 2.1 to 4 (≈ 3.42 to 6.52 µM) | 2.1 to 4 (≈ 3.42 to 6.52 µM) | 1.1 to 2 (≈ 1.79 to 3.26 µM) | 10 (≈ 16.3 µM) | 2 (≈ 3.26 µM) | 0.4 (≈ 0.652 µM) | 0.4 (≈ 0.652 µM) | > 50 | 10 (≈ 16.3 µM) | 2 (≈ 3.26 µM) | 2 (≈ 3.26 µM) | > 50 | D (“D” provided a compound concentration of >50 ppm at 90% inhibition of fungal pathogens) | > 50 | 10 (≈ 16.3 µM) | 2 (≈ 3.26 µM) | 2 (≈ 3.26 µM) | D (“D” provided a compound concentration of >50 ppm at 90% inhibition of fungal pathogens) | IC90 (Septoria tritici (St); Table 4a, 48 hours): > 50 mg/L
3 | COc1ccc(F)cc1[C@H](Cn1c(=O)n(C(C)(C)C(=O)NC(C)C)c(=O)c2c(C)c(-n3cccn3)sc21)OC[C@H](C)O [Compound I-38, 2-(1-((R)-2-(5-fluoro-2-methoxyphenyl)-2-((S)-2-hydroxy-propoxy)ethyl)-5-methyl-2,4-dioxo-6-(1H-pyrazol-1-yl)-1,4-dihydrothieno[2,3-d]pyrimidin-3(2H)-yl)-N-isopropyl-2-methylpropanamide] | 0.6 to 3 | 10 to 40 | – | – | – | 10 (≈ 16.6 µM) | 2 (≈ 3.32 µM) | – | – | > 50 | 10 (≈ 16.6 µM) | – | – | – | – | > 50 | 10 (≈ 16.6 µM) | 2 (≈ 3.32 µM) | 2 (≈ 3.32 µM) | – | MIC ([1]; ATCC22019, 48 h): > 4.1 mg/L; MIC (C. albicans ATCC 90028; ATCC90028, 48 h): > 4.1 mg/L; MIC (C. krusei ATCC 6258; ATCC6258, 48 h): 2.1 to 4 mg/L (≈ 3.49 to 6.65 µM); IC90 [2]: 0.4 mg/L (≈ 0.665 µM); Concentration at 90% Inhibition Fm ([2]; Table 4b, 48 hours): A (“A” provided a compound concentration of 0.4 ppm at 90% inhibition of fungal pathogens); IC90 [3, 11]: 2 mg/L (≈ 3.32 µM); IC90 [3, 12]: 2 mg/L (≈ 3.32 µM); IC90 ([4]; 48 h, Table 4a): > 50 mg/L; IC90 ([4]; 48 h, Table 4b): > 50 mg/L; IC90 (Septoria tritici (St); 48 h, Table 4a): > 50 mg/L; IC90 (Septoria tritici (St); 48 h, Table 4b): > 50 mg/L
4 | COc1ccc(F)cc1[C@H](Cn1c(=O)n(C(C)(C)C(=O)NC(C)C)c(=O)c2c(C)c(-n3cccn3)sc21)OC[C@@H](C)O [Compound I-39, 2-(1-((R)-2-(5-fluoro-2-methoxyphenyl)-2-((R)-2-hydroxy-propoxy)ethyl)-5-methyl-2,4-dioxo-6-(1H-pyrazol-1-yl)-1,4-dihydrothieno[2,3-d]pyrimidin-3(2H)-yl)-N-isopropyl-2-methylpropanamide] | 0.6 to 3 | 3 to 10 | – | – | – | 0.4 (≈ 0.665 µM) | 0.4 (≈ 0.665 µM) | – | – | 10 (≈ 16.6 µM) | 2 (≈ 3.32 µM) | – | – | – | – | 0.4 (≈ 0.665 µM) | 0.4 (≈ 0.665 µM) | 2 (≈ 3.32 µM) | 2 (≈ 3.32 µM) | – | MIC ([1]; ATCC22019, 48 h): > 4.1 mg/L; MIC (C. albicans ATCC 90028; ATCC90028, 48 h): > 4.1 mg/L; MIC (C. krusei ATCC 6258; ATCC6258, 48 h): 2.1 to 4 mg/L (≈ 3.49 to 6.65 µM); IC90 [2]: 0.4 mg/L (≈ 0.665 µM); Concentration at 90% Inhibition Fm ([2]; Table 4b, 48 hours): A (“A” provided a compound concentration of 0.4 ppm at 90% inhibition of fungal pathogens); IC90 [3, 11]: > 50 mg/L; IC90 [3, 12]: 2 mg/L (≈ 3.32 µM); IC90 ([4]; 48 h, Table 4a): > 50 mg/L; IC90 ([4]; 48 h, Table 4b): 10 mg/L (≈ 16.6 µM); IC90 (Septoria tritici (St); 48 h, Table 4a): > 50 mg/L; IC90 (Septoria tritici (St); 48 h, Table 4b): 10 mg/L (≈ 16.6 µM)
5 | COc1ccc(F)cc1[C@H](Cn1c(=O)n(C(C)(C)C(=O)N2CCCC2)c(=O)c2c(C)c(-n3cccn3)sc21)OC[C@H](C)O [Compound I-40, 1-((R)-2-(5-fluoro-2-methoxyphenyl)-2-((S)-2-hydroxy-propoxy)ethyl)-5-methyl-3-(2-methyl-1-oxo-1-(pyrrolidin-1-yl)propan-2-yl)-6-(1H-pyrazol-1-yl)thieno[2,3-d]pyrimidine-2,4(1H,3H)-dione] | 0.6 to 3 | 10 to 40 | 2.1 to 4 (≈ 3.42 to 6.52 µM) | > 4.1 | 0.25 to 1 (≈ 0.407 to 1.63 µM) | 10 (≈ 16.3 µM) | 2 (≈ 3.26 µM) | 2 (≈ 3.26 µM) | 2 (≈ 3.26 µM) | > 50 | > 50 | > 50 | 10 (≈ 16.3 µM) | > 50 | D (“D” provided a compound concentration of >50 ppm at 90% inhibition of fungal pathogens) | > 50 | 10 (≈ 16.3 µM) | > 50 | 10 (≈ 16.3 µM) | D (“D” provided a compound concentration of >50 ppm at 90% inhibition of fungal pathogens) | IC90 (Septoria tritici (St); Table 4a, 48 hours): > 50 mg/L
6 | COc1ccc(F)cc1[C@H](Cn1c(=O)n(C(C)(C)C(=O)NC(C)C)c(=O)c2c(C)c(-n3cccn3)sc21)OCC(C)(C)O [Compound I-41, (R)-2-(1-(2-(5-fluoro-2-methoxyphenyl)-2-(2-hydroxy-2-methylpropoxy)ethyl)-5-methyl-2,4-dioxo-6-(1H-pyrazol-1-yl)-1,4-dihydro-thieno[2,3-d]pyrimidin-3(2H)-yl)-N-isopropyl-2-methylpropanamide] | 0.6 to 3 | 3 to 10 | – | – | – | 10 (≈ 16.2 µM) | 2 (≈ 3.25 µM) | – | – | 10 (≈ 16.2 µM) | 2 (≈ 3.25 µM) | – | – | – | – | 2 (≈ 3.25 µM) | 2 (≈ 3.25 µM) | 2 (≈ 3.25 µM) | 2 (≈ 3.25 µM) | – | MIC ([1]; ATCC22019, 48 h): > 4.1 mg/L; MIC (C. albicans ATCC 90028; ATCC90028, 48 h): > 4.1 mg/L; MIC (C. krusei ATCC 6258; ATCC6258, 48 h): > 4.1 mg/L; IC90 [2]: 0.4 mg/L (≈ 0.65 µM); Concentration at 90% Inhibition Fm ([2]; Table 4b, 48 hours): A (“A” provided a compound concentration of 0.4 ppm at 90% inhibition of fungal pathogens); IC90 [3, 11]: 0.4 mg/L (≈ 0.65 µM); IC90 [3, 12]: 0.4 mg/L (≈ 0.65 µM); IC90 ([4]; 48 h, Table 4a): > 50 mg/L; IC90 ([4]; 48 h, Table 4b): > 50 mg/L; IC90 (Septoria tritici (St); 48 h, Table 4a): > 50 mg/L; IC90 (Septoria tritici (St); 48 h, Table 4b): 10 mg/L (≈ 16.2 µM)

Source: patent US10941158B2, “Pyrazole ACC inhibitors and uses thereof” (Gilead Apollo, LLC, priority 2015, dated 2021)
